Results as given in patent US5008252A, “Process for inhibiting herpes simplex virus-specified thymidine kinase” (The University of North Carolina at Chapel Hill, priority 1987, dated 1991).
Entries after “also recorded” stand apart in the source; their conditions may differ.

Columns and labels:
[1] = target: T1, human cytosolic dThd kinase (Homo sapiens, UniProt P04183); assay: dThd kinase assay in vitro; type: biochemical; conditions: purified enzyme; concentrations as high as 150 μM; 100 μM [14C]dThd
T1 construct: cellular cytosolic dThd kinase used to determine the Ki values was isolated from KB6B cells; endogenous in cells; host or cells: KB6B cells
T1 sequence (P04183 whole entry): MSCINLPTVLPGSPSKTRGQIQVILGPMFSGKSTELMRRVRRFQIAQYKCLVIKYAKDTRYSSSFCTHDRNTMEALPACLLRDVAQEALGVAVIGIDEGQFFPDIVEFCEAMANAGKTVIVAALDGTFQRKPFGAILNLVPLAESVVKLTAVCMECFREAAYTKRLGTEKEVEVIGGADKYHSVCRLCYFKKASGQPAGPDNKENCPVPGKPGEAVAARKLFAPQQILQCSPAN
Text: Enzyme purification, enzyme assays, IC50 and Ki determinations. The cellular cytosolic dThd kinase used to determine the Ki values was isolated from KB6B cells. The HSV-1 and HSV-2dThd kinases were extracted from dThd kinase-deficient HeLa BU cells infected with HSV-1 (strain KOS) and HSV-2(strain 333), respectively. All of the dThd kinases were purified using affinity column chromatography procedures described by Lee, L. S. and Cheng, Y.-C. (J. Biol. Chem. 251:2600-2604 (1976)). The dThd kinase assay used was the same as that described by Cheng, Y.-C. & Ostrander, M. (J. Biol. Chem. 251:2605-2610 (1976)). Incubations were conducted at 37° C. for 60 min and the Ki and 50% […] concentration (IC50) values were determined as described by Cheng, Y.-C. and Prusoff, W. H. (Biochem. Pharmacol. 22:3099-3108 (1976)).

[2] = tested on: virus DNA synthesis; assay: Virus DNA synthesis, isopycnic centrifugation of 32PO4-labeled DNA; type: cell-based; conditions: 5'-Et-dThd by itself; 32PO4-labeled virus DNA separated from host DNA
Text: By itself, 5'-Et-dThd had no effect on virus yield (Table II) and on virus DNA synthesis as determined from isopycnic centrifugation studies where ^32 PO4 -labeled virus DNA was separated from host DNA. Nucleoside analogs have been developed based on the "selective alternate substrate" strategy, and depend on viral dThd kinase for their antiviral activity. The effect of 5'-Et-dThd on the antiviral efficacy of five such analogs, ACV, 9-(1, 3-dihydroxy-2-propoxymethyl) guanine (DHPG), fluoroido-arabinosyl-cytosine (FIAC), BVDU and 5'-amino-dThd (5'-NH2 -dThd) has been examined. The effect of 5'-Et-dThd on the activity of the five agents was determined by the virus yield assay using HSV-1 (strain KOS)-infected HeLa BU cells. At 100 μM, 5'-Et-dThd reversed the antiviral activity of ACV (15 μM), DHPG (2 μM), FIAC (1 μM), BVDU (1 μM) and 5'-NH2 -dThd (500 μM)35-, 100-, 98-, 15- and 250-fold, respectively (Table II). […] The results further indicate that the use of 5'-Et-dThd in the prophylaxis/prevention of virus reactivation would require a sequential order when used with virus dThd kinase-dependent antiviral agents.

[3] = tested on: mammalian host DNA synthesis; assay: Host DNA synthesis by 32PO4 incorporation; type: cell-based; conditions: 100 μM
[4] = target: dThd kinase from HSV-1 (KOS)-infected HeLa BU cells (Human alphaherpesvirus 1 strain KOS, UniProt P17402); assay: Phosphate transfer assay (substrate test); type: biochemical, HSV-1 (strain KOS); conditions: 2 mM ATP
dThd kinase from HSV-1 (KOS)-infected HeLa BU cells, sequence (P17402 whole entry, looked up): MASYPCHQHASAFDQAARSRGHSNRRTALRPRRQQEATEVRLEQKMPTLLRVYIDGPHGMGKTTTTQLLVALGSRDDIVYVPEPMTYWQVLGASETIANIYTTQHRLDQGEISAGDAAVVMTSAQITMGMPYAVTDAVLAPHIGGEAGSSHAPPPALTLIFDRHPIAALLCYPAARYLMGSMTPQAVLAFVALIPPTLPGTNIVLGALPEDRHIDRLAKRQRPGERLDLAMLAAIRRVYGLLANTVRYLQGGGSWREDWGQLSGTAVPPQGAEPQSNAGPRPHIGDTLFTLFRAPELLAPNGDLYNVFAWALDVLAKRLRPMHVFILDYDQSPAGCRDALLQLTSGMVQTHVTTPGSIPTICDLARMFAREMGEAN

In the case of 5'-ethynylthymidine [5'-Et-dThd], the “effect on human cytosolic dThd kinase” value [1] is reported as “does not exhibit inhibitory activity; also recorded: no effect; also recorded: No demonstrable effects”, the “effect on virus DNA synthesis” value [2] is reported as “no effect” and the “effect on mammalian host DNA synthesis” value [3] is reported as “no effect”. For the same substance, the “substrate for virus dThd kinase (phosphorylation of the analogue)” value [4] was “not phosphorylated; also recorded: did not serve as a substrate”.
